Data: patent US20150342190A1, “METHODS FOR LEVERAGING HORMESIS IN PLANT BREEDING AND PLANTS WITH ENHANCED HORMESIS EFFECTS” (PIONEER HI BRED INTERNATIONAL INC, priority 2014, published 2015)
Where two headings read alike, the source gives them in different places.

Assays:
Format in all cases: in vivo
[1] = tested on: soybean line 93M94 (RR + Als1)
Experimental: (§1) The field trial was conducted as a 7×4 factorial experiment (7 herbicide regimes×4 genotypes) in a split block design with main blocks as herbicide treatments. The trial was conducted at 3 different environments (separate field locations) in Iowa during the summer of 2014. Herbicide control treatment #1 (no sulfonylurea) was replicated 12 times within each of the 3 environments (36 reps total). Herbicide treatments 2 through 7 (Table 7) were replicated 6 times at each of the 3 environments (18 reps total). The additional replication of control treatment #1 was done to increase precision of the treatment mean to which all other treatments (#2 through 7) would be compared.
(§2) It is important to note that both tribenuron and rimsulfuron are more toxic to wild type soybeans than other SU's that could also be tested. But treatment with these specific SU's and application rates was intended to push the limits of SU tolerance so that any response differences between lines could be exposed. The 4 genotypes (Table 6) were randomized within each of the main blocks to facilitate post-emergence application of the various herbicide treatments (Table 7). Each experimental unit was a 2-row soybean plot 15 feet long with 30 inch row spacing and a planting density of 8 seeds per foot of row. Planting was done in mid-May and harvest was done in early October at all 3 environments in 2014.
(§3) Several weeks after planting, the entire field was sprayed post-emergence at the V2 (2-leaf) stage with Roundup PowerMax® at 44 oz/acre (30 oz/acre ai glyphosate) with the addition of ammonium sulfate at a rate of 8 lb per 100 gallons as according to label. Several days later at the V3 (3-leaf) stage, herbicide treatments 2 through 7 (Table 7) were applied according to label directions including the addition of ammonium sulfate at a rate of 8 lb per 100 gallons of spray solution. Randomly embedded control plots of a given soybean genotype facilitated side-by-side visual estimates of herbicide injury. Plots were given visual injury ratings at 14 days after herbicide treatment (14 DAT). Visual injury estimates were assigned to reflect the crop response (a combination of reduced vigor and/or chlorosis) of sprayed rows in relation to the randomly embedded control plots. Injury scores were based on a 0-100% scale, with 0 indicating no crop response and 100 indicating all plants killed.
(§4) At maturity, the seed from each plot was harvested with weight and moisture recorded. Weights were then adjusted to 13% moisture content and reported in units of bushels per acre (bu/a). Yields were also converted to % of control on a “per line” and “per environment” basis. For example, the average yield of SU-treated 93Y92BC3 plots were compared to the average yield of 93Y92BC3 control plots within a given environment and then averaged across environments.

[2] = tested on: soybean line 94Y02 (RR + Als1)
Experimental: as §1, §2, §3, §4

[3] = tested on: soybean line 93Y92BC3 (RR + Als1 + Als2); experiment: 2014 field hormesis trial (Example 4)
Experimental: as §1, §2, §3, §4

[4] = tested on: soybean line 93Y82BC3 (RR + Als1 + Als2); experiment: 2014 field hormesis trial (Example 4)
Experimental: as §1, §2, §3, §4

[5] = tested on: inbred lines without the glyphosate tolerance trait (PH1BVW2, PH1PMB1, and PHSZB1); experiment: Glyphosate efficacy check on non-tolerant maize inbreds (Example 5); conditions: both glyphosate treatments (1× and 2× of the recommended dosage), spray
Experimental: (§5) Seeds from four glyphosate tolerant maize inbred lines (PH1BVW2, PH1PMB1, PHSZB1 and PH19081) were washed in 0.615% NaClO solution for 5 minutes and rinsed with deionized water. They were germinated for one week and then transferred into individual 10″ Deepot tubes (1 seedling/tube), either with foam plugs to suspend the plants in the tubes (Experiments 1 &2) or filled with Turface (Experiments 3 & 4). These tubes were placed into hydroponic growing tanks (100 tubes/tank) with a modified Hoagland's media. At the end of the 2nd week after planting, plants from selected tanks were sprayed with glyphosate solutions equivalent to 1× or 2× of the recommended dosage (1× dosage: 1 quart of liquid Round-Up WeatherMax® per acre, or 21.75 ul/ft2). Separately, three inbred lines without the glyphosate tolerance trait (PH1BVW2, PH1PMB1, and PHSZB1) were treated with the same dosages of glyphosate to confirm the efficacy of the herbicide. The inbred lines without the glyphosate tolerance trait were killed by both glyphosate treatments, as expected. Four weeks after germination, plants were harvested and shoot fresh weight was recorded.

[6] = tested on: glyphosate tolerant maize inbred line PH1BVW2; experiment: Glyphosate treatment of hydroponically grown maize inbreds, shoot fresh weight (Example 5); conditions: seedling fresh weight
Experimental: as §5

[7] = tested on: glyphosate tolerant maize inbred line PH19081; experiment: as above; conditions: seedling fresh weight
Experimental: as §5

[8] = tested on: soybean line BC44883336 (ALS1 + ALS2); experiment: Field yield trial with herbicide treatments (Example 2); conditions: full herbicide concentration (Tribenuron 1.0X) at V3
Experimental: (§6) Table 2 describes the soy lines used and whether ALS1, ALS2, or both herbicide resistant genes were present in each.
(§7) Each of the lines in Table 2 was grown at a density of 150,000 seeds/acre (˜8 seeds per foot of row) in two 30 inch rows. Each line was divided into four groups, and each group of each line was subjected to one of the four herbicide treatments listed in Table 3.
(§8) Group 1 of each line was the control group that received no herbicide treatment. Groups 2, 3, and 4 of each line were treated with different concentrations of herbicide corresponding to approximately ¼ strength, ½ strength, and full strength (needed for weed control) respectively of the recommended concentrations of the herbicide DuPont™ Express® w/TotalSol®, which includes Tribenuron, a sulfonylurea herbicide. The herbicide treatment spray solution was prepared according to the label instructions with a non-ionic surfactant and an adjuvant (ammonium sulfate). The herbicide was applied to Groups 2, 3, and 4 during the V3 growth phase, the plants were grown to maturity, and yield measurements were made. Each genotype×herbicide treatment group was replicated six times.

[9] = tested on: soybean line BC44883270 (ALS1 + ALS2); experiment: as above; conditions: full herbicide concentration (Tribenuron 1.0X) at V3
Experimental: as §6, §7, §8

[10] = tested on: soybean line BC44883269 (ALS2); experiment: as above; conditions: full herbicide concentration (Tribenuron 1.0X) at V3
Experimental: as §6, §7, §8

[11] = tested on: soybean line BC44883300 (ALS2); experiment: as above; conditions: full herbicide concentration (Tribenuron 1.0X) at V3
Experimental: as §6, §7, §8

[12] = tested on: soybean lines of Table 2; experiment: Field yield trial with herbicide treatments (Example 2), all lines; conditions: 1/4 concentration herbicide application (Tribenuron 0.25X) at V3
Experimental: as §6, §7, §8

[13] = 0.5x rate at V3, 3 environments
[14] = herbicide treatments 2 and 3 (tribenuron 0.5x and 1x), 14 DAT

Compound: CCS(=O)(=O)c1cccnc1S(=O)(=O)NC(=O)Nc1nc(OC)cc(OC)n1 [rimsulfuron]
- Yield as % of control ([1]; 0.5x rate at V3): 76%
- Yield effect ([1]; 0.5x rate at V3): negative
- Yield (bu/a) [1, 13]: 36.7 bu/a
- Yield as % of control ([1]; 1x rate at V3): 51%
- Yield effect ([1]; 1x rate at V3): negative
- Yield (bu/a) ([1]; 1x rate at V3, 3 environments): 24.7 bu/a
- Yield as % of control ([1]; 2x rate at V3): 41%
- Yield effect ([1]; 2x rate at V3): negative
- Yield (bu/a) ([1]; 2x rate at V3, 3 environments): 19.6 bu/a
- Yield as % of control ([2]; 0.5x rate at V3): 54%
- Yield effect ([2]; 0.5x rate at V3): negative
- Yield (bu/a) [2, 13]: 31.7 bu/a
- Yield as % of control ([2]; 1x rate at V3): 33%
- Yield effect ([2]; 1x rate at V3): negative
- Yield (bu/a) ([2]; 1x rate at V3, 3 environments): 19.5 bu/a
- Yield as % of control ([2]; 2x rate at V3): 21%
- Yield effect ([2]; 2x rate at V3): negative
- Yield (bu/a) ([2]; 2x rate at V3, 3 environments): 12.2 bu/a
- Yield as % of control ([3]; 0.5x rate at V3): 107%
- Yield effect ([3]; 0.5x rate at V3): Positive
- Yield (bu/a) [3, 13]: 59.8 bu/a
- Yield as % of control ([3]; 1x rate at V3): 108%
- Yield effect ([3]; 1x rate at V3): Positive
- Yield (bu/a) ([3]; 1x rate at V3, 3 environments): 60.5 bu/a
- Yield as % of control ([3]; 2x rate at V3): 89%
- Yield effect ([3]; 2x rate at V3): negative
- Yield (bu/a) ([3]; 2x rate at V3, 3 environments): 49.9 bu/a
- Yield as % of control ([4]; 0.5x rate at V3): 99%
- Yield effect ([4]; 0.5x rate at V3): neutral
- Yield (bu/a) [4, 13]: 60.1 bu/a
- Yield as % of control ([4]; 1x rate at V3): 93%
- Yield effect ([4]; 1x rate at V3): negative
- Yield (bu/a) ([4]; 1x rate at V3, 3 environments): 56.2 bu/a
- Yield as % of control ([4]; 2x rate at V3): 81%
- Yield effect ([4]; 2x rate at V3): negative
- Yield (bu/a) ([4]; 2x rate at V3, 3 environments): 48.7 bu/a

Compound: O=C(O)CNCP(=O)(O)O [glyphosate]
- efficacy of the herbicide on non-tolerant lines [5]: killed
- hormesis effect upon application of herbicide [6]: positive hormesis effect
- hormesis effect upon application of herbicide [7]: positive hormesis effect

Compound: COc1nc(C)nc(N(C)C(=O)NS(=O)(=O)c2ccccc2C(=O)O)n1 [tribenuron]
- yield improvement over the control [8]: ~13%
- yield improvement over the control [9]: about 4.5%
- yield decrease [10]: about 32%
- yield decrease [11]: ~19%
- Yield as % of control ([1]; 0.5x rate at V3): 98%
- Yield effect ([1]; 0.5x rate at V3): neutral
- Yield (bu/a) [1, 13]: 47.5 bu/a
- Visual injury 14 DAT ([1]; 0.5x rate at V3, 14 DAT): 10%
- Yield as % of control ([1]; 1x rate at V3): 101%
- Yield effect ([1]; 1x rate at V3): neutral
- Yield (bu/a) ([1]; 1x rate at V3, 3 environments): 48.9 bu/a
- Visual injury 14 DAT ([1]; 1x rate at V3, 14 DAT): 18%
- Yield as % of control ([1]; 2x rate at V3): 87%
- Yield effect ([1]; 2x rate at V3): negative
- Yield (bu/a) ([1]; 2x rate at V3, 3 environments): 41.9 bu/a
- Visual injury 14 DAT ([1]; 2x rate at V3, 14 DAT): 39%
- Yield as % of control ([2]; 0.5x rate at V3): 99%
- Yield effect ([2]; 0.5x rate at V3): neutral
- Yield (bu/a) [2, 13]: 58.8 bu/a
- Visual injury 14 DAT ([2]; 0.5x rate at V3, 14 DAT): 9%
- Yield as % of control ([2]; 1x rate at V3): 98%
- Yield effect ([2]; 1x rate at V3): neutral
- Yield (bu/a) ([2]; 1x rate at V3, 3 environments): 58.2 bu/a
- Visual injury 14 DAT ([2]; 1x rate at V3, 14 DAT): 19%
- Yield as % of control ([2]; 2x rate at V3): 82%
- Yield effect ([2]; 2x rate at V3): negative
- Yield (bu/a) ([2]; 2x rate at V3, 3 environments): 48.6 bu/a
- Visual injury 14 DAT ([2]; 2x rate at V3, 14 DAT): 39%
- Yield as % of control ([3]; 0.5x rate at V3): 106%
- Yield effect ([3]; 0.5x rate at V3): Positive
- Yield (bu/a) [3, 13]: 59.4 bu/a
- Visual injury 14 DAT ([3]; 0.5x rate at V3, 14 DAT): 2%
- Yield as % of control ([3]; 1x rate at V3): 104%
- Yield effect ([3]; 1x rate at V3): Positive
- Yield (bu/a) ([3]; 1x rate at V3, 3 environments): 58.0 bu/a
- Visual injury 14 DAT ([3]; 1x rate at V3, 14 DAT): 5%
- Yield as % of control ([3]; 2x rate at V3): 108%
- Yield effect ([3]; 2x rate at V3): Positive
- Yield (bu/a) ([3]; 2x rate at V3, 3 environments): 60.0 bu/a
- Visual injury 14 DAT ([3]; 2x rate at V3, 14 DAT): 14%
- average visual injury [3, 14]: ≤ 6%
- Yield as % of control ([4]; 0.5x rate at V3): 101%
- Yield effect ([4]; 0.5x rate at V3): neutral
- Yield (bu/a) [4, 13]: 61.1 bu/a
- Visual injury 14 DAT ([4]; 0.5x rate at V3, 14 DAT): 3%
- Yield as % of control ([4]; 1x rate at V3): 101%
- Yield effect ([4]; 1x rate at V3): neutral
- Yield (bu/a) ([4]; 1x rate at V3, 3 environments): 61.3 bu/a
- Visual injury 14 DAT ([4]; 1x rate at V3, 14 DAT): 6%
- Yield as % of control ([4]; 2x rate at V3): 102%
- Yield effect ([4]; 2x rate at V3): neutral
- Yield (bu/a) ([4]; 2x rate at V3, 3 environments): 61.4 bu/a
- Visual injury 14 DAT ([4]; 2x rate at V3, 14 DAT): 16%
- average visual injury [4, 14]: ≤ 6%
- yield relative to the control (hormesis effect) [12]: relative yield increase
